# Results taken from ChEMBL document CHEMBL1130110 (J Med Chem, 1997).
# Tests used:
# Glucagon receptor [1] = target: T1, Glucagon receptor (Rattus norvegicus, UniProt P30082); assay: Binding affinity towards Glucagon receptor in rat liver plasma membranes by displacement of 125 I-labelled glucagon; format: cell membranes
# Glucagon receptor [2] = target: T1, Glucagon receptor; assay: pA2 value against Glucagon Receptor; details: read-out: pA2 (converted)
# Glucagon receptor [3] = target: T1, Glucagon receptor; assay: Effective concentration was determined in cAMP accumulation assay using isolated hepatocytes in the presence rolipram.; format: functional, cell-based; details: hepatocyte
# T1 sequence (P30082 whole entry): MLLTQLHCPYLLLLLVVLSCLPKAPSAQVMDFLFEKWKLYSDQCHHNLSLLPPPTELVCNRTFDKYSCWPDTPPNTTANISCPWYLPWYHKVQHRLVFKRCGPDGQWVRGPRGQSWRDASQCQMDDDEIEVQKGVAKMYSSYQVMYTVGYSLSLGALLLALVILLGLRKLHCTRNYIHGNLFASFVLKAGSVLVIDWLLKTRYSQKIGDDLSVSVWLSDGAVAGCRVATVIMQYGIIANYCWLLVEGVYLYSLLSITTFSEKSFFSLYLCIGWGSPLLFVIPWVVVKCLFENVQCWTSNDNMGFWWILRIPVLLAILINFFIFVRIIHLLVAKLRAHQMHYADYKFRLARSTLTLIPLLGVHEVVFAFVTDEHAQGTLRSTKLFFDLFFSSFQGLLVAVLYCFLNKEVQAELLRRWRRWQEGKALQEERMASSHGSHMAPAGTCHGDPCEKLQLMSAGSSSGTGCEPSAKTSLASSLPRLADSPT
Compound,IC50 (Glucagon receptor [1]) [nM],Kb (Glucagon receptor [2]) [nM],EC50 (Glucagon receptor [3])
CSCC[C@H](NC(=O)[C@H](CC(C)C)NC(=O)[C@H](Cc1c[nH]c2ccccc12)NC(=O)[C@H](CCC(N)=O)NC(=O)[C@@H](NC(=O)[C@H](Cc1ccccc1)NC(=O)[C@H](CC(=O)O)NC(=O)[C@H](CCC(N)=O)NC(=O)[C@H](C)NC(=O)[C@H](CCCNC(=N)N)NC(=O)[C@H](CCCNC(=N)N)NC(=O)[C@H](CO)NC(=O)[C@H](CC(=O)O)NC(=O)[C@H](CC(C)C)NC(=O)[C@H](Cc1ccc(O)cc1)NC(=O)[C@H](CCCCN)NC(=O)[C@H](CO)NC(=O)[C@H](Cc1ccc(O)cc1)NC(=O)[C@H](CCC(=O)O)NC(=O)[C@H](CO)NC(=O)[C@@H](NC(=O)[C@@H](NC(=O)CNC(=O)[C@H](CCC(N)=O)NC(=O)[C@@H](N)CO)[C@@H](C)O)[C@@H](C)O)C(C)C)C(=O)N[C@@H](CC(N)=O)C(=O)N[C@H](C(=O)O)[C@@H](C)O (stereo in doubt; 13),2000,631,–
CSCC[C@H](NC(=O)[C@H](CC(C)C)NC(=O)[C@H](Cc1c[nH]c2ccccc12)NC(=O)[C@H](CCC(N)=O)NC(=O)[C@@H](NC(=O)[C@H](Cc1ccccc1)NC(=O)[C@H](CC(=O)O)NC(=O)[C@H](CCC(N)=O)NC(=O)[C@H](C)NC(=O)[C@H](CCCNC(=N)N)NC(=O)[C@H](CCCNC(=N)N)NC(=O)[C@H](CO)NC(=O)[C@H](CC(=O)O)NC(=O)[C@H](CC(C)C)NC(=O)[C@H](Cc1ccc(O)cc1)NC(=O)[C@H](CCCCN)NC(=O)[C@H](CO)NC(=O)[C@H](Cc1ccc(O)cc1)NC(=O)[C@H](CCC(=O)O)NC(=O)[C@H](CO)NC(=O)[C@@H](NC(=O)[C@@H](NC(=O)CNC(=O)[C@H](CCC(N)=O)NC(=O)[C@@H](N)CO)[C@@H](C)O)[C@@H](C)O)C(C)C)C(=O)N[C@@H](CC(N)=O)C(=O)N[C@H](C(=O)O)[C@@H](C)O (stereo in doubt; 12),1000,794,–
CSCC[C@H](NC(=O)[C@H](CC(C)C)NC(=O)[C@H](Cc1c[nH]c2ccccc12)NC(=O)[C@H](CCC(N)=O)NC(=O)[C@@H](NC(=O)[C@H](Cc1ccccc1)NC(=O)[C@H](CC(=O)O)NC(=O)[C@H](CCC(N)=O)NC(=O)[C@H](C)NC(=O)[C@H](CCCN=C(N)N)NC(=O)[C@H](CCCN=C(N)N)NC(=O)[C@H](CO)NC(=O)[C@H](CC(=O)O)NC(=O)[C@H](CC(C)C)NC(=O)[C@H](Cc1ccc(O)cc1)NC(=O)[C@H](CCCCN)NC(=O)[C@H](CO)NC(=O)[C@H](Cc1ccc(O)cc1)NC(=O)[C@H](CCC(=O)O)NC(=O)[C@H](CO)NC(=O)[C@@H](NC(=O)[C@H](CC(=O)O)NC(=O)[C@@H](NC(=O)CNC(=O)[C@H](CCC(N)=O)NC(=O)[C@@H](N)CO)[C@@H](C)O)[C@@H](C)O)C(C)C)C(=O)N[C@@H](CC(N)=O)C(=O)N[C@H](C(N)=O)[C@@H](C)O,–,–,Not Active
CSCC[C@H](NC(=O)[C@H](CC(C)C)NC(=O)[C@H](Cc1c[nH]c2ccccc12)NC(=O)[C@H](CCC(N)=O)NC(=O)[C@@H](NC(=O)[C@H](Cc1ccccc1)NC(=O)[C@H](CC(=O)O)NC(=O)[C@H](CCC(N)=O)NC(=O)[C@H](C)NC(=O)[C@H](CCCN=C(N)N)NC(=O)[C@H](CCCN=C(N)N)NC(=O)[C@H](CO)NC(=O)[C@H](CC(=O)O)NC(=O)[C@H](CC(C)C)NC(=O)[C@H](Cc1ccc(O)cc1)NC(=O)[C@H](CCCCN)NC(=O)[C@H](CO)NC(=O)[C@H](Cc1ccc(O)cc1)NC(=O)[C@H](CCC(=O)O)NC(=O)[C@H](CO)NC(=O)[C@@H](NC(=O)[C@@H](Cc1ccccc1)NC(=O)[C@@H](NC(=O)CNC(=O)[C@H](CCC(N)=O)NC(=O)[C@@H](N)CO)[C@@H](C)O)[C@@H](C)O)C(C)C)C(=O)N[C@@H](CC(N)=O)C(=O)N[C@H](C(N)=O)[C@@H](C)O,100,501,–
CSCC[C@H](NC(=O)[C@H](CC(C)C)NC(=O)[C@H](Cc1c[nH]c2ccccc12)NC(=O)[C@H](CCC(N)=O)NC(=O)[C@@H](NC(=O)[C@H](Cc1ccccc1)NC(=O)[C@H](CC(=O)O)NC(=O)[C@H](CCC(N)=O)NC(=O)[C@H](C)NC(=O)[C@H](CCCN=C(N)N)NC(=O)[C@H](CCCN=C(N)N)NC(=O)[C@H](CO)NC(=O)[C@H](CC(=O)O)NC(=O)[C@H](CC(C)C)NC(=O)[C@H](Cc1ccc(O)cc1)NC(=O)[C@H](CCCCN)NC(=O)[C@H](CO)NC(=O)[C@H](Cc1ccc(O)cc1)NC(=O)[C@H](CCC(=O)O)NC(=O)[C@H](CO)NC(=O)[C@@H](NC(=O)[C@@H](NC(=O)CNC(=O)[C@H](CCC(N)=O)NC(=O)[C@@H](N)CO)[C@@H](C)O)[C@@H](C)O)C(C)C)C(=O)N[C@@H](CC(N)=O)C(=O)N[C@H](C(N)=O)[C@@H](C)O,–,–,Not Active
CSCC[C@H](NC(=O)[C@H](CC(C)C)NC(=O)[C@H](Cc1c[nH]c2ccccc12)NC(=O)[C@H](CCC(N)=O)NC(=O)[C@@H](NC(=O)[C@H](Cc1ccccc1)NC(=O)[C@H](CC(=O)O)NC(=O)[C@H](CCC(N)=O)NC(=O)[C@H](C)NC(=O)[C@H](CCCNC(=N)N)NC(=O)[C@H](CCCNC(=N)N)NC(=O)[C@H](CO)NC(=O)[C@H](CC(=O)O)NC(=O)[C@H](CC(C)C)NC(=O)[C@H](Cc1ccc(O)cc1)NC(=O)[C@H](CCCCN)NC(=O)[C@H](CO)NC(=O)[C@H](Cc1ccc(O)cc1)NC(=O)[C@H](CCC(=O)O)NC(=O)[C@H](CO)NC(=O)[C@@H](NC(=O)[C@H](CC(=O)O)NC(=O)[C@@H](NC(=O)CNC(=O)[C@H](CCC(N)=O)NC(=O)[C@@H](N)CO)[C@@H](C)O)[C@@H](C)O)C(C)C)C(=O)N[C@@H](CC(N)=O)C(=O)N[C@H](C(N)=O)[C@@H](C)O,2000,501,–
H-HSQGTTSDYSKYLDSRRAQDFVQWLMNT-OH,500,562,–
CSCC[C@H](NC(=O)[C@H](CC(C)C)NC(=O)[C@H](Cc1c[nH]c2ccccc12)NC(=O)[C@H](CCC(N)=O)NC(=O)[C@@H](NC(=O)[C@H](Cc1ccccc1)NC(=O)[C@H](CC(=O)O)NC(=O)[C@H](CCC(N)=O)NC(=O)[C@H](C)NC(=O)[C@H](CCCN=C(N)N)NC(=O)[C@H](CCCN=C(N)N)NC(=O)[C@H](CO)NC(=O)[C@H](CC(=O)O)NC(=O)[C@H](CC(C)C)NC(=O)[C@H](Cc1ccc(O)cc1)NC(=O)[C@H](CCCCN)NC(=O)[C@H](CO)NC(=O)[C@H](Cc1ccc(O)cc1)NC(=O)[C@H](CCC(=O)O)NC(=O)[C@H](CO)NC(=O)[C@@H](NC(=O)[C@H](C)NC(=O)[C@@H](NC(=O)CNC(=O)[C@H](CCC(N)=O)NC(=O)[C@@H](N)CO)[C@@H](C)O)[C@@H](C)O)C(C)C)C(=O)N[C@@H](CC(N)=O)C(=O)N[C@H](C(N)=O)[C@@H](C)O,–,–,Not Active
CSCC[C@H](NC(=O)[C@H](CC(C)C)NC(=O)[C@H](Cc1c[nH]c2ccccc12)NC(=O)[C@H](CCC(N)=O)NC(=O)[C@@H](NC(=O)[C@H](Cc1ccccc1)NC(=O)[C@H](CC(=O)O)NC(=O)[C@H](CCC(N)=O)NC(=O)[C@H](C)NC(=O)[C@H](CCCN=C(N)N)NC(=O)[C@H](CCCN=C(N)N)NC(=O)[C@H](CO)NC(=O)[C@H](CC(=O)O)NC(=O)[C@H](CC(C)C)NC(=O)[C@H](Cc1ccc(O)cc1)NC(=O)[C@H](CCCCN)NC(=O)[C@H](CO)NC(=O)[C@H](Cc1ccc(O)cc1)NC(=O)[C@H](CC(=O)O)NC(=O)[C@H](CO)NC(=O)[C@@H](NC(=O)[C@@H](NC(=O)CNC(=O)[C@H](CCC(N)=O)NC(=O)[C@@H](N)CO)[C@@H](C)O)[C@@H](C)O)C(C)C)C(=O)N[C@@H](CC(N)=O)C(=O)N[C@H](C(=O)O)[C@@H](C)O,–,–,Not Active
CSCC[C@H](NC(=O)[C@H](CC(C)C)NC(=O)[C@H](Cc1c[nH]c2ccccc12)NC(=O)[C@H](CCC(N)=O)NC(=O)[C@@H](NC(=O)[C@H](Cc1ccccc1)NC(=O)[C@H](CC(=O)O)NC(=O)[C@H](CCC(N)=O)NC(=O)[C@H](C)NC(=O)[C@H](CCCN=C(N)N)NC(=O)[C@H](CCCN=C(N)N)NC(=O)[C@H](CO)NC(=O)[C@H](CC(=O)O)NC(=O)[C@H](CC(C)C)NC(=O)[C@H](Cc1ccc(O)cc1)NC(=O)[C@H](CCCCN)NC(=O)[C@H](CO)NC(=O)[C@H](Cc1ccc(O)cc1)NC(=O)[C@H](CCC(=O)O)NC(=O)[C@H](CO)NC(=O)[C@@H](NC(=O)[C@H](Cc1ccccc1)NC(=O)[C@@H](NC(=O)[C@H](CCC(N)=O)NC(=O)[C@@H](N)CO)[C@@H](C)O)[C@@H](C)O)C(C)C)C(=O)N[C@@H](CC(N)=O)C(=O)N[C@H](C(N)=O)[C@@H](C)O,52,891,–
CSCC[C@H](NC(=O)[C@H](CC(C)C)NC(=O)[C@H](Cc1c[nH]c2ccccc12)NC(=O)[C@H](CCC(N)=O)NC(=O)[C@@H](NC(=O)[C@H](Cc1ccccc1)NC(=O)[C@H](CC(=O)O)NC(=O)[C@H](CCC(N)=O)NC(=O)[C@H](C)NC(=O)[C@H](CCCNC(=N)N)NC(=O)[C@H](CCCNC(=N)N)NC(=O)[C@H](CO)NC(=O)[C@H](CC(=O)O)NC(=O)[C@H](CC(C)C)NC(=O)[C@H](Cc1ccc(O)cc1)NC(=O)[C@H](CCCCN)NC(=O)[C@H](CO)NC(=O)[C@H](Cc1ccc(O)cc1)NC(=O)[C@H](CC(=O)O)NC(=O)[C@H](CO)NC(=O)[C@@H](NC(=O)[C@@H](NC(=O)CNC(=O)[C@H](CCC(N)=O)NC(=O)[C@@H](N)CO)[C@@H](C)O)[C@@H](C)O)C(C)C)C(=O)N[C@@H](CC(N)=O)C(=O)N[C@H](C(=O)O)[C@@H](C)O,200,708,–
CCCC[C@H](NC(=O)[C@@H](NC(=O)CNC(=O)[C@H](CCC(N)=O)NC(=O)[C@@H](N)CO)[C@@H](C)O)C(=O)N[C@H](C(=O)N[C@@H](CO)C(=O)N[C@@H](CCC(=O)O)C(=O)N[C@@H](Cc1ccc(O)cc1)C(=O)N[C@@H](CO)C(=O)N[C@@H](CCCCN)C(=O)N[C@@H](Cc1ccc(O)cc1)C(=O)N[C@@H](CC(C)C)C(=O)N[C@@H](CC(=O)O)C(=O)N[C@@H](CO)C(=O)N[C@@H](CCCN=C(N)N)C(=O)N[C@@H](CCCN=C(N)N)C(=O)N[C@@H](C)C(=O)N[C@@H](CCC(N)=O)C(=O)N[C@@H](CC(=O)O)C(=O)N[C@@H](Cc1ccccc1)C(=O)N[C@H](C(=O)N[C@@H](CCC(N)=O)C(=O)N[C@@H](Cc1c[nH]c2ccccc12)C(=O)N[C@@H](CC(C)C)C(=O)N[C@@H](CCSC)C(=O)N[C@@H](CC(N)=O)C(=O)N[C@H](C(N)=O)[C@@H](C)O)C(C)C)[C@@H](C)O,48,–,–
